The numbers were not newly measured in US10214591B1, “Monoclonal antibody to human line-1 ORF2 protein and method for early detection of transforming cells in pre-neoplastic tissues of a human subject” (Alienor Farma, priority 2015, dated 2019), which cites them from elsewhere.

Series [1] has as its system human tumorigenic cells. The settings on record: xenografted mice.
Series [2] relates to tumorigenic cell lines.

Regarding `O=C1Nc2ccc(Cl)cc2[C@@](C#CC2CC2)(C(F)(F)F)O1` [efavirenz, (S)-6-Chloro-4-(cyclopropylethynyl)-1,4-dihydro-4-(trifluoromethyl)-2H-3,1 benzoxazin-2-one], the “effect on tumor progression” value in series [1] was “arrest, or a significant reduction, of tumor progression”. Moreover, the “effect on proliferation and differentiation of cancer cells” value in series [2] was “reduced proliferation and enhanced differentiation”.
Regarding `Cc1ccnc2c1NC(=O)c1cccnc1N2C1CC1` [nevirapine], the “effect on proliferation and differentiation of cancer cells” value in series [2] is “reduced proliferation and enhanced differentiation”.
